Source: the NIST ThermoML archive (doi:10.1021/je050520f)
± gives the expanded uncertainty stated by the source.

Tests used:
[1] = 101.33 kPa, Liquid
[2] = refractive index (Na D-line) (dimensionless); conditions: 101.33 kPa, Liquid

mass density ([1]; 298.15 K) | refractive index ([2]; 298.15 K, Abbe refractometer) | SMILES | refractive index ([2]; 293.15 K, Abbe refractometer) | other results
679.43 ± 0.36 kg/m3 | 1.3853 ± 0.0003 | CCCCCCC [heptane] | – | –
– | – | NC1CCCCC1 [cyclohexylamine] | – | mass density ([1]; 303.15 K): 858.2 ± 0.2 kg/m3; refractive index ([2]; 288.15 K, Abbe refractometer): 1.4624 ± 0.0005
860.79 ± 0.28 kg/m3 | 1.4901 ± 0.0006 | CCCc1ccccc1 [propylbenzene] | – | –
698.49 ± 0.31 kg/m3 | – | CCCCCCCC [octane] | – | refractive index ([2]; 298.15 K): 1.3946 ± 0.0007
– | – | O [water] | 1.3336 ± 0.0005 | –
– | – | Cc1ccccc1 [toluene] | 1.496 ± 0.0006 | mass density ([1]; 293.15 K): 866.78 ± 0.19 kg/m3
